Measured values as given in paper PMC10786919, “Design-rules for stapled peptides with in vivo activity and their application to Mdm2/X antagonists” (Nature Communications, 2024).
Converted amounts (≈) assume the structure as drawn. Where two headings read alike, the source gives them in different places. Starred links: 1 amine or outer side, 2 acyl side, 3 side chain; linkers in the order of their positions; H or OH if unused. Positions of bridges follow the written chain, without caps; N, C: chain ends. Non-standard residues stand in square brackets, D forms with d. Residues, ends and D or L forms follow the SMILES beside them. dR8(desαMe) = O=C([C@@H](CCCCCCC=[*:3])N[*:1])[*:2]; Nle(6-ylidene) = O=C([C@H](CCCC=[*:3])N[*:1])[*:2]; tBuAla = CC(C)(C)C[C@H](N)C(=O)O; R8 = C=CCCCCCC[C@@](C)(N)C(=O)O; Cba = N[C@@H](CC1CCC1)C(=O)O; R5 = C=CCCC[C@@](C)(N)C(=O)O; S5 = C=CCCC[C@](C)(N)C(=O)O; Ahx = NCCCCCC(=O)O

Columns and labels:
[1] = Solubility assay (kinetic solubility, PBS pH 7); type: physicochemical; conditions: pH 7, aqueous buffer, kinetic from dmso stock
Summary of the method: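 Next, measure peak areas of sample and standard. Finally, multiply their ratio by the standard concentration to obtain solubility (µM).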

[2] = Lactate dehydrogenase (LDH) release assay; type: cell-based; conditions: LDH: Cytotoxicity assay EC50
Summary of the method: (§1)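 Read-out was lactate dehydrogenase release, reflecting loss of membrane integrity, in reporter-engineered HCT116 cells (p53-responsive β-lactamase) seeded at 8000 cells per well. Final DMSO was 0.5%, and reported values are geometric means from three or more biological repeats.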

[3] = Experimental LogD (partition coefficient)
HCT116 cells = assay: Lactate dehydrogenase (LDH) release assay; type: cell-based
Summary of the method: as §1

[4] = tested on: p53 responsive β-lactamase reporter in HCT116 cells; assay: cells; type: cell-based; conditions: for EC50: read-out: p53 reporter assay EC50
Summary of the method: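 Read-out used the ToxBLAzer Dual Screen for β-lactamase driven by a stably integrated p53-responsive reporter. Assay: 8000 HCT116 cells per well at 0.5% final DMSO. Reported numbers are geometric means over a minimum of three biological replicates.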

[5] = tested on: Jump-In T-REx CHO-K1 BLA cells; assay: cells; type: cell-based; conditions: for EC50: read-out: TETCHO: Counterscreen EC50
Protocol: This assay was based on Jump-In™ T-REx™ CHO-K1 BLA cells containing a stably integrated β-lactamase under the control of an inducible cytomegalovirus (CMV) promoter. Cells were maintained in Dulbecco’s […] Eagle Medium (DMEM) with 10% fetal bovine serum (FBS), Blasticidin, and Penicillin/Streptomycin and then transferred to 1.5 ml freezing vials and stored under liquid nitrogen in growth media containing 5% DMSO. […] Cells were seeded into a 384-well plate at a density of 4000 cells per well. Peptides were then dispensed to each well using a liquid handler, ECHO 555 and incubated for 16 h. The final working concentration of DMSO was 0.5%. β-lactamase activity was detected using the ToxBLAzer Dual Screen (Invitrogen), as per the manufacturer’s instructions. Measurements were carried out using the Envision multiplate reader (Perkin–Elmer). Counterscreen activity was defined as the amount of β-lactamase activity induced by tetracycline. Measurements were taken a minimum of three times (biological replicates) and values are reported as geometric means of the replicates.

[6] = pH 7, PBS, read-out: Solubility
[7] = not stated, Partition Coeff LogD

| SMILES | EPSA (physchem) [A^2] | solubility kinetic [1, 6] [µM] | EC50 [2] [µM] | logD [3, 7] | TETCHO: Counterscreen % Effect ([5]; 0% FBS 4Hr) [%] | LDH: Cytotoxicity assay % Effect (HCT116 cells) [%] | EC50 ([4]; 0% FBS 4Hr) [µM] | EC50 ([5]; 0% FBS 4Hr) [µM] | other results |
| --- | --- | --- | --- | --- | --- | --- | --- | --- | --- |
| CC(=O)N[C@@H](CC(C)C)C(=O)N[C@H](C(=O)N[C@@H](Cc1ccccc1)C(=O)N[C@]1(C)CCCCCCC=CCCC[C@@](C)(C(=O)N[C@@H](CO)C(=O)N[C@@H](C)C(=O)N[C@@H](C)C(N)=O)NC(=O)[C@H](CC2CCC2)NC(=O)[C@H](CCCNC(=N)N)NC(=O)[C@H](CCC(N)=O)NC(=O)[C@H](Cc2c[nH]c3ccccc23)NC(=O)[C@H](Cc2ccc(O)cc2)NC(=O)[C@H](CCC(=O)O)NC1=O)[C@@H](C)O [MP-195] (Ac-LTF[R8]EYWQR[Cba][S5]SAA-NH2; staple 4-11) | 216 | 3 (≈ 5.49 µg/mL) | > 50 | 2.87 |  |  |  |  |  |
| CC(C)[C@@H](CS(=O)(=O)C(C)C)N1C(=O)[C@@](C)(CC(=O)O)C[C@H](c2cccc(Cl)c2)[C@H]1c1ccc(Cl)cc1 [AMG232] |  |  |  |  | 72.2 |  |  |  | solubility kinetic [1]: 138 µM (≈ 78.5 µg/mL); LDH: Cytotoxicity assay % Effect (HCT116 cells; 0% FBS 4Hr): -4.2%; LDH: Cytotoxicity assay % Effect (HCT116 cells; 10% FBS 4Hr): -12.8%; LDH: Cytotoxicity assay % Effect (HCT116 cells; 10% FBS 16Hr): -18.8%; logD [3]: 2.25; p53 reporter assay % Effect ([4]; 0% FBS 4Hr): 95.1%; p53 reporter assay % Effect ([4]; 10% FBS 4Hr): 82.7%; p53 reporter assay % Effect ([4]; 10% FBS 16Hr): 83.6%; EC50 ([4]; Homo sapiens, HCT-116, 4 h, 0% FBS 4Hr): 0.0116 µM; EC50 ([4]; Homo sapiens, HCT-116, 4 h, 10% FBS 4Hr): 0.0742 µM; EC50 ([4]; Homo sapiens, HCT-116, 16 h, 10% FBS 16Hr): 0.255 µM; TETCHO: Counterscreen % Effect ([5]; 10% FBS 4Hr): 30.6%; TETCHO: Counterscreen % Effect ([5]; 10% FBS 16Hr): -10.3%; EC50 ([5]; T-REx-CHO-K1, 4 h, 0% FBS 4Hr): 45.6 µM; EC50 ([5]; T-REx-CHO-K1, 4 h, 10% FBS 4Hr): > 50.4 µM; EC50 ([5]; T-REx-CHO-K1, 16 h, 10% FBS 16Hr): > 50.4 µM |
| CC(=O)N[C@@H](Cc1ccccc1)C(=O)N[C@]1(C)CCCCCCC=CCCC[C@@](C)(C(=O)N[C@@H](CO)C(N)=O)NC(=O)[C@H](CC2CCC2)NC(=O)[C@H](CC(C)C)NC(=O)[C@H](CCC(N)=O)NC(=O)[C@H](Cc2c[nH]c3ccccc23)NC(=O)[C@H](Cc2ccc(O)cc2)NC(=O)[C@H](CCC(=O)O)NC1=O [MP-203] (Ac-F[R8]EYWQL[Cba][S5]S-NH2; staple 2-9) | 213 | 96 (≈ 137 µg/mL) | > 50 | 2.61 |  |  |  |  |  |
| CC(=O)N[C@@H](CC(C)C)C(=O)N[C@H](C(=O)N[C@@H](Cc1ccccc1)C(=O)N[C@]1(C)CCCCCCC=CCCC[C@@](C)(C(=O)N[C@@H](CO)C(N)=O)NC(=O)[C@H](CC2CCC2)NC(=O)[C@H](CC(C)C)NC(=O)[C@H](CCC(N)=O)NC(=O)[C@H](Cc2c[nH]c3ccccc23)NC(=O)[C@H](Cc2ccc(O)cc2)NC(=O)[C@H](CCC(=O)O)NC1=O)[C@@H](C)O [MP-204] (Ac-LTF[R8]EYWQL[Cba][S5]S-NH2; staple 4-11) | 216 | 15 (≈ 24.7 µg/mL) | > 50 | 2.81 |  |  |  |  |  |
| CC(=O)N[C@@H](CC(C)C)C(=O)N[C@@H](CCCNC(=N)N)C(=O)N[C@@H](Cc1ccccc1)C(=O)N[C@]1(C)CCCCCCC=CCCC[C@@](C)(C(=O)N[C@@H](CO)C(=O)N[C@@H](C)C(=O)N[C@@H](C)C(N)=O)NC(=O)[C@H](CC2CCC2)NC(=O)[C@H](CC(C)C)NC(=O)[C@H](CCC(N)=O)NC(=O)[C@H](Cc2c[nH]c3ccccc23)NC(=O)[C@H](Cc2ccc(O)cc2)NC(=O)[C@H](CCC(=O)O)NC1=O [MP-1192] (Ac-LRF[R8]EYWQL[Cba][S5]SAA-NH2; staple 4-11) | 220 | 3 (≈ 5.53 µg/mL) | > 50 | 2.79 |  |  |  |  |  |
| CC(=O)N[C@@H](CCCNC(=N)N)C(=O)N[C@@H](CCCNC(=N)N)C(=O)N[C@@H](CCCNC(=N)N)C(=O)NCCCCCC(=O)N[C@H](C(=O)N[C@@H](CO)C(=O)N[C@@H](Cc1ccccc1)C(=O)N[C@]1(C)CCCCCCC=CCCC[C@@](C)(C(=O)N[C@@H](CCC(=O)O)C(=O)N[C@@H](CC(N)=O)C(=O)N[C@@H](Cc2ccccc2)C(N)=O)NC(=O)[C@H](CC(C)C)NC(=O)[C@H](CC(C)C)NC(=O)[C@H](C)NC(=O)[C@H](Cc2c[nH]c3ccccc23)NC(=O)[C@H](Cc2ccc(O)cc2)NC(=O)[C@H](CCC(=O)O)NC1=O)[C@@H](C)O [MP-2009] (Ac-RRR[Ahx]TSF[R8]EYWALL[S5]ENF-NH2; staple 8-15) |  |  | > 50 |  | 68.36 | 32.46 | 9.74 | 16.6 |  |
| CC(=O)N[C@H](C(=O)N[C@@H](CO)C(=O)N[C@@H](Cc1ccccc1)C(=O)N[C@@H]1CCCCCCC=CCCC[C@@H](C(N)=O)NC(=O)[C@H](CC(C)(C)C)NC(=O)[C@H](CC(C)C)NC(=O)[C@H](C)NC(=O)[C@H](Cc2c[nH]c3ccccc23)NC(=O)[C@H](Cc2ccc(O)cc2)NC(=O)[C@H](CCC(=O)O)NC1=O)[C@@H](C)O [MP-150] (Ac-TSF[dR8(desαMe)]EYWAL[tBuAla][Nle(6-ylidene)]-NH2; staple 4-11) |  |  | > 50 |  | -3.542 | -0.7157 | 22.3 | > 50 |  |
| CC(=O)N[C@H](C(=O)N[C@@H](CO)C(=O)N[C@@H](Cc1ccccc1)C(=O)N[C@]1(C)CCCCCCC=CCCC[C@@](C)(C(=O)NCCCCCC(=O)N[C@@H](CCCCN)C(N)=O)NC(=O)[C@H](CC(C)C)NC(=O)[C@H](CC(C)C)NC(=O)[C@H](C)NC(=O)[C@H](Cc2c[nH]c3ccccc23)NC(=O)[C@H](Cc2ccc(O)cc2)NC(=O)[C@H](CCC(=O)O)NC1=O)[C@@H](C)O [MP-164] |  |  | > 50 |  | 0.7814 | 4.255 | 7.83 | > 50 |  |
| CC(=O)N[C@H](C(=O)N[C@@H](CO)C(=O)N[C@@H](Cc1ccccc1)C(=O)N[C@]1(C)CCCCCCC=CCCC[C@@](C)(C(=O)N[C@@H](CCC(=O)O)C(=O)N[C@@H](CC(N)=O)C(=O)N[C@@H](Cc2ccccc2)C(N)=O)NC(=O)[C@H](CC(C)C)NC(=O)[C@H](CC(C)C)NC(=O)[C@H](C)NC(=O)[C@H](Cc2c[nH]c3ccccc23)NC(=O)[C@H](Cc2ccc(O)cc2)NC(=O)[C@H](CCC(=O)O)NC1=O)[C@@H](C)O [MP-1169] |  |  | 34.1 |  | 11.25 | 37.3 | 5.34 | > 50 |  |
| CC(=O)N[C@H](C(=O)N[C@@H](CO)C(=O)N[C@@H](Cc1ccccc1)C(=O)NC(C)(C)C(=O)N[C@@H](CCC(=O)O)C(=O)N[C@@H](Cc1ccc(O)cc1)C(=O)N[C@@H](Cc1c[nH]c2ccccc12)C(=O)N[C@@H](C)C(=O)N[C@@H](CC(C)C)C(=O)N[C@@H](CC(C)C)C(=O)NC(C)(C)C(=O)N[C@@H](CCC(=O)O)C(N)=O)[C@@H](C)O [MP-1176] |  |  | > 50 |  | -0.7808 | 12.95 | > 50 | > 50 |  |
| CC(=O)N[C@H](C(=O)N[C@@H](CO)C(=O)N[C@@H](Cc1ccccc1)C(=O)N[C@]1(C)CCCC=CCCC[C@](C)(C(=O)N[C@@H](CC(C)C)C(=O)N[C@@H](CC(C)C)C(=O)N2CCC[C@H]2C(N)=O)NC(=O)[C@H](Cc2c[nH]c3ccccc23)NC(=O)[C@H](Cc2ccc(O)cc2)NC(=O)[C@H](CCC(=O)O)NC1=O)[C@@H](C)O [MP-1174] (Ac-TSF[R5]EYW[R5]LLP-NH2; staple 4-8) |  |  | > 50 |  | 7.183 | 2.374 | 18.7 | > 50 |  |
| CC(=O)N[C@@H](CCCCN)C(=O)N[C@@H](CCCCN)C(=O)N[C@H](C(=O)N[C@@H](CO)C(=O)N[C@@H](Cc1ccccc1)C(=O)N[C@]1(C)CCCCCCC=CCCC[C@@](C)(C(N)=O)NC(=O)[C@H](CC(C)(C)C)NC(=O)[C@H](CC(C)C)NC(=O)[C@H](C)NC(=O)[C@H](Cc2c[nH]c3ccccc23)NC(=O)[C@H](Cc2ccc(O)cc2)NC(=O)[C@H](CCC(=O)O)NC1=O)[C@@H](C)O [MP-152] (Ac-KKTSF[R8]EYWAL[tBuAla][S5]-NH2; staple 6-13) |  |  | 17.2 |  | 34.57 | 49.97 | 19.3 | 36.5 |  |
